The target in assay [1] is T1, purified wild type MGL (wt-MGLL 6H-11-313) (Homo sapiens, UniProt Q99685).
T1 sequence (Q99685 1-303): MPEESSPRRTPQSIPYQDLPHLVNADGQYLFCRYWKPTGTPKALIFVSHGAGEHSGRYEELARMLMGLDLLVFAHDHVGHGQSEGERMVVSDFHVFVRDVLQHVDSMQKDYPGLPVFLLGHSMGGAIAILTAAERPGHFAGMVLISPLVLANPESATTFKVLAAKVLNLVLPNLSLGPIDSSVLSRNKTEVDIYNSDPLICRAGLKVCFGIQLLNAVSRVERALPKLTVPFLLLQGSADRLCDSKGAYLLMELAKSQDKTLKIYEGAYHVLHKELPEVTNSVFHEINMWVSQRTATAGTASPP

A further assay has as its target T2, mutant MGL (Homo sapiens, UniProt Q99685, L169S/L176S).
T2 sequence (Q99685 1-303 L169S/L176S): T1 sequence (Q99685 1-303) with L169S, L176S
Briefly: MGL ThermoFluor assay - mutant. The format is binding. (Differential scanning fluorimetry follows unfolding on heating by fluorescence.)

[2] abbreviates: ThermoFluor concentration-response, read-out: MGL mutant ThermoFluor Kd.
Where [3] appears, read: ThermoFluor thermal stability binding assay, read-out: MGL mutant ThermoFluor Kd.
The mark [4] stands for this setting: compound concentration measured by qNMR, read-out: MGL mutant ThermoFluor qKd (using qNMR conc.).
[5] abbreviates: ThermoFluor, compound concentration measured by qNMR, read-out: MGL mutant ThermoFluor qKd (using qNMR conc.).
[6] abbreviates: ThermoFluor, compound concentration measured by qNMR, read-out: MGL mutant ThermoFluor qKd (μM) (using qNMR conc.).

For 38 compounds, IC50 and Kd results are on record in patent US8362000B2, “Azetidinyl diamides as monoacylglycerol lipase inhibitors” (Janssen Pharmaceutica NV, priority 2009, dated 2013).

Molecules are shown by their SMILES. Numbering of substitutions follows the chain as printed. Like-named read-outs stand apart in the source and are kept apart here.

The IC50 is the concentration at which inhibition is half-maximal. Higher therefore signals a need for much substance.

Regarding `O=C(c1ccccc1)N1CCN(C2CN(C(=O)c3ccc4c(ccn4-c4ccc(Cl)cn4)c3)C2)CC1` [Cpd 629, 1-(5-Chloropyridin-2-yl)-5-({3-[4-(phenylcarbonyl)piperazin-1-yl]azetidin-1-yl}carbonyl)-1H-indole], in assay [1], the IC50 was found to be 53 nM. The Kd at mutant MGL (setting [2]) amounted to 0.145 µM.

In the case of `O=C(c1ccc(-c2ccccc2)cc1)N1CC(N2CCN(C(=O)C3CCC3)CC2)C1` [Cpd 1232], the IC50 in assay [1] was 326 nM. The Kd at mutant MGL (setting [3]) worked out at 0.345 µM.

`O=C(c1ccc2nn(Cc3ccc(F)cc3)cc2c1)N1CC(N2CCN(C(=O)c3nccs3)CC2)C1` [Cpd 1030, 2-(4-Fluorobenzyl)-5-({3-[4-(1,3-thiazol-2-ylcarbonyl)piperazin-1-yl]azetidin-1-yl}carbonyl)-2H-indazole] gave an IC50 in assay [1] of 13 nM. Further, the Kd at mutant MGL (setting [4]) was found to be 0.033 µM.

`O=C(c1ccc2c(ccn2-c2cccc(C(F)(F)F)c2)c1)N1CC(N2CCN(C(=O)c3nccs3)CC2)C1` [Cpd 1356, 5-({3-[4-(1,3-Thiazol-2-ylcarbonyl)piperazin-1-yl]azetidin-1-yl}carbonyl)-1-[3-(trifluoromethyl)phenyl]-1H-indole] showed an IC50 in assay [1] below 5 nM. Moreover, the Kd at mutant MGL (setting [2]) was determined as 0.002 µM.

With `Cc1c(C(=O)N2CC(N3CCN(C(=O)c4cscn4)CC3)C2)nn(-c2ccc(Cl)cc2Cl)c1-c1ccc(Cl)cc1` [Cpd 1198], 143 nM corresponded to half-maximal inhibition in assay [1] (IC50). For the same compound, the Kd on mutant MGL (setting [3]) stood at 0.03 µM.

For the compound `Cc1c(C(=O)N2CCN(C3CN(C(=O)c4nccs4)C3)CC2)sc2cc(C(F)(F)F)ccc12` [Cpd 704], 96 nM corresponded to half-maximal inhibition in assay [1] (IC50). Besides, the Kd on mutant MGL (setting [2]) amounted to 0.017 µM.

In assay [1], `O=C(c1cscn1)N1CC(N2CCN(C(=O)c3cc4nc(C(F)(F)F)ccc4[nH]3)CC2)C1` [Cpd 830] returned an IC50 of 3940 nM. Further, the Kd on mutant MGL (setting [5]) was found to be 1.96 µM.

In turn, `O=C(c1ccc2c(-c3cccc(F)c3)c[nH]c2c1)N1CC(N2CCN(C(=O)c3nccs3)CC2)C1` [Cpd 1319] yielded an IC50 in assay [1] below 5 nM. Besides, the Kd on mutant MGL (setting [4]) amounted to 0.001 µM.

Take `Cc1ccc(-n2ccc3cc(C(=O)N4CC(N5CCN(C(=O)c6nccs6)CC5)C4)ccc32)nc1` [Cpd 1073, 1-(5-Methylpyridin-2-yl)-5-({3-[4-(1,3-thiazol-2-ylcarbonyl)piperazin-1-yl]azetidin-1-yl}carbonyl)-1H-indole]: in assay [1], 34 nM corresponded to half-maximal inhibition (IC50). On mutant MGL (setting [5]), the Kd is 0.087 µM.

The compound `O=C(c1cnc2cc(Cl)c(Cl)cc2c1)N1CC(N2CCN(C(=O)c3nccs3)CC2)C1` [Cpd 743] gave an IC50 in assay [1] of 324 nM. Further, on mutant MGL (setting [5]), the Kd came to 0.133 µM.

In assay [1], `O=C(c1cscn1)N1CCN(C2CN(C(=O)c3[nH]c4nc(C(F)(F)F)ccc4c3Br)C2)CC1` [Cpd 774] gave an IC50 of 848 nM. On mutant MGL (setting [5]), the Kd is 0.254 µM.

In assay [1], `O=C(c1ccc(-c2cccc(C(F)(F)F)c2)cc1)N1CC(N2CCN(C(=O)c3ccc(Cl)o3)CC2)C1` [Cpd 1078] displayed an IC50 of 9 nM. Moreover, at mutant MGL (setting [6]), the Kd was 0.005 µM.

In turn, `Cc1nc2cc(C(=O)N3CC(N4CCN(C(=O)c5cscn5)CC4)C3)ccc2n1-c1ccc(F)c(F)c1` [Cpd 1264] displayed an IC50 in assay [1] of 986 nM. Moreover, the Kd on mutant MGL (setting [4]) amounted to 0.251 µM.

For `CC1(C)Cc2cc(C(=O)N3CC(N4CCN(C(=O)c5nccs5)CC4)C3)ccc2O1` [Cpd 766], the 50% inhibitory concentration (IC50) in assay [1] turned out to be 680 nM. Also, at mutant MGL (setting [5]), the Kd was 0.378 µM.

On to `O=C(c1ccccc1)N1CCN(C2CN(C(=O)c3ccc(Oc4cccc(C(F)(F)F)c4)nc3)C2)CC1` [Cpd 514], for which, in assay [1], the midpoint of inhibition, the IC50, lay at 454 nM. In addition, the Kd at mutant MGL (setting [2]) worked out at 0.727 µM.

Take `O=C(c1cscn1)N1CC(N2CCN(C(=O)c3ccc(-c4ccccc4)cc3)C(Cc3ccccc3)C2)C1` (stereo not shown) [Cpd 1284, 2-Benzyl-1-(biphenyl-4-ylcarbonyl)-4-[1-(1,3-thiazol-4-ylcarbonyl)azetidin-3-yl]piperazine]: in assay [1], the IC50 was 2290 nM. In addition, at mutant MGL (setting [2]), the Kd is 0.041 µM.

As to `O=C(c1ccccc1)N1CCN(C2CN(C(=O)c3ccc4c(ccn4-c4ccncc4)c3)C2)CC1` [Cpd 603, 5-({3-[4-(Phenylcarbonyl)piperazin-1-yl]azetidin-1-yl}carbonyl)-1-pyridin-4-yl-1H-indole], the IC50 in assay [1] was 1720 nM. Besides, the Kd on mutant MGL (setting [5]) was found to be 0.448 µM.

`O=C(c1ccc2[nH]c3c(c2c1)CCCC3)N1CC(N2CCN(C(=O)c3nccs3)CC2)C1` [Cpd 763]: the IC50 in assay [1] was found to be 635 nM. Besides, the Kd on mutant MGL (setting [2]) was determined as 0.083 µM.

`O=C(c1nccs1)N1CCN(C2CN(C(=O)c3cn(-c4cccc(F)c4)c4ccccc34)C2)CC1` [Cpd 1226]: half-maximal inhibition in assay [1] (IC50) was put at 282 nM. The Kd on mutant MGL (setting [6]) came to 0.193 µM.

`Cc1c(C(=O)N2CC(N3CCN(C(=O)c4cscn4)CC3)C2)cccc1-c1ccccc1` [Cpd 1285] displayed an IC50 in assay [1] of 2320 nM. The Kd at mutant MGL (setting [2]) is 2.45 µM.

In assay [1], `Cn1nc(-c2ccc(F)cc2)c2cc(C(=O)N3CC(N4CCN(C(=O)c5nccs5)CC4)C3)ccc21` [Cpd 1195] came in with an IC50 of 120 nM. In addition, on mutant MGL (setting [2]), the Kd was 0.023 µM.

For the compound `CN(C(=O)Cn1ccc2cc(C(=O)N3CC(N4CCN(C(=O)c5nccs5)CC4)C3)ccc21)c1ccccc1` [Cpd 1031], in assay [1], half-maximal inhibition (IC50) required 111 nM. The Kd at mutant MGL (setting [4]) turned out to be 0.134 µM.

`O=C(c1ccc2nc(C(F)(F)F)cc(Cl)c2c1)N1CCN(C2CN(C(=O)c3cscn3)C2)CC1` [Cpd 859] came in with a 50% inhibitory concentration (IC50) in assay [1] of 8820 nM. Besides, the Kd on mutant MGL (setting [2]) was determined as 1.43 µM.

Regarding `Cc1c(C(=O)N2CC(N3CCN(C(=O)c4nccs4)CC3)C2)oc2c(F)cccc12` [Cpd 794], in assay [1], inhibition was half-maximal at 1470 nM (IC50). On mutant MGL (setting [2]), the Kd stood at 2.11 µM.

In turn, `O=C(c1nccs1)N1CCN(C2CN(C(=O)c3ccc4c(ccn4-c4ccc(F)cc4)c3Cl)C2)CC1` [Cpd 1414, 4-Chloro-1-(4-fluorophenyl)-5-({3-[4-(1,3-thiazol-2-ylcarbonyl)piperazin-1-yl]azetidin-1-yl}carbonyl)-1H-indole] returned a half-maximal inhibitory concentration (IC50) in assay [1] of 11 nM. Besides, the Kd on mutant MGL (setting [4]) is 0.003 µM.

`O=C(c1ccc2c(ccn2-c2ccc(Cl)cn2)c1)N1CC(N2CCN(C(=O)c3cscn3)CC2)C1` [Cpd 1180, 1-(5-Chloropyridin-2-yl)-5-({3-[4-(1,3-thiazol-4-ylcarbonyl)piperazin-1-yl]azetidin-1-yl}carbonyl)-1H-indole] had a 50% inhibitory concentration (IC50) in assay [1] of 75 nM. In addition, on mutant MGL (setting [5]), the Kd was 0.019 µM.

Take `O=C(c1cnc2ccn(-c3ccc(F)cc3)c2c1)N1CC(N2CCN(C(=O)c3nccs3)CC2)C1` [Cpd 1277]: the IC50 in assay [1] turned out to be 1830 nM. Further, the Kd on mutant MGL (setting [6]) was 2.72 µM.

On to `O=C(c1ccc2c(c1)[nH]c(=O)n2C1CCC(F)(F)CC1)N1CC(N2CCN(C(=O)c3nccs3)CC2)C1` [Cpd 932], for which, in assay [1], it took 104 nM to reach half-maximal inhibition (IC50). At mutant MGL (setting [2]), the Kd amounted to 0.008 µM.

As to `O=C(c1cnc2cc(Cl)ccc2c1)N1CC(N2CCN(C(=O)c3nccs3)CC2)C1` [Cpd 787], half-maximal inhibition in assay [1] (IC50) was put at 1210 nM. In addition, the Kd on mutant MGL (setting [5]) was found to be 0.247 µM.

`O=C(c1ccc2nc(N3CCC(F)(F)CC3)sc2c1)N1CC(N2CCN(C(=O)c3nccs3)CC2)C1` [Cpd 671]: the 50% inhibitory concentration (IC50) in assay [1] was found to be 16 nM. In addition, at mutant MGL (setting [4]), the Kd was 0.018 µM.

Regarding `O=C(c1ccc2c(N3CCSCC3)ncnc2c1)N1CC(N2CCN(C(=O)c3nccs3)CC2)C1` [Cpd 951, 7-({3-[4-(1,3-Thiazol-2-ylcarbonyl)piperazin-1-yl]azetidin-1-yl}carbonyl)-4-thiomorpholin-4-ylquinazoline], inhibition in assay [1] was half-maximal at 540 nM (IC50). Further, the Kd at mutant MGL (setting [4]) was found to be 0.117 µM.

Compound `O=C(c1ccc(N2CCS(=O)(=O)CC2)cc1)N1CC(N2CCN(C(=O)c3nccs3)CC2)C1` [Cpd 843] displayed an IC50 in assay [1] of 5530 nM. On mutant MGL (setting [2]), the Kd was 2.13 µM.

In assay [1], `O=C(c1ccc2c(ccn2-c2cc(F)ccc2F)c1)N1CC(N2CCN(C(=O)c3nccs3)CC2)C1` [Cpd 1373] came in with a half-inhibitory concentration (IC50) below 5 nM. Moreover, on mutant MGL (setting [6]), the Kd worked out at 0.004 µM.

In the case of `O=C(c1cc2ccc(C(F)(F)F)nc2o1)N1CC(N2CCN(C(=O)c3nccs3)CC2)C1` [Cpd 844], the half-maximal inhibitory concentration (IC50) in assay [1] was 6100 nM. In addition, on mutant MGL (setting [2]), the Kd came out at 62.5 µM.

In the case of `O=C(c1ccc2nn(Cc3ccc(C(F)(F)F)cc3)cc2c1)N1CC(N2CCN(C(=O)c3nccs3)CC2)C1` [Cpd 1037, 5-({3-[4-(1,3-Thiazol-2-ylcarbonyl)piperazin-1-yl]azetidin-1-yl}carbonyl)-2-[4-(trifluoromethyl)benzyl]-2H-indazole], in assay [1], the IC50 worked out at 5 nM. Besides, the Kd on mutant MGL (setting [4]) came to 0.022 µM.

With `O=C(c1ccccc1)N1CCN(C2CN(C(=O)c3cccc4[nH]c(-c5ccc(F)cc5)nc34)C2)CC1` [Cpd 602], it took 1720 nM to reach half-maximal inhibition in assay [1] (IC50). Further, the Kd at mutant MGL (setting [3]) worked out at 0.5 µM.

As to `O=C(c1ccccc1)N1CCN(C2CN(C(=O)c3ccc(N4CCOCC4)nc3)C2)CC1` [Cpd 1485, 4-[5-({3-[4-(Phenylcarbonyl)piperazin-1-yl]azetidin-1-yl}carbonyl)pyridin-2-yl]morpholine], the IC50 in assay [1] is above 16700 nM. Also, on mutant MGL (setting [2]), the Kd was 10 µM.

Take `Cc1cc(-n2ccc3cc(C(=O)N4CC(N5CCN(C(=O)c6nccs6)CC5)C4)ccc32)ccn1` [Cpd 1410, 1-(2-Methylpyridin-4-yl)-5-({3-[4-(1,3-thiazol-2-ylcarbonyl)piperazin-1-yl]azetidin-1-yl}carbonyl)-1H-indole]: half-maximal inhibition in assay [1] (IC50) was put at 89 nM. Moreover, at mutant MGL (setting [5]), the Kd is 0.014 µM.
